# In US10829730B2, “Microdevice platform recapitulating hypoxic tissue microenvironments” (UNIVERSITY OF SOUTHERN CALIFORNIA, priority 2017, dated 2020):
# Entries after “also recorded” stand apart in the source; their conditions may differ.
# Tests used:
# [1] = test system: MCF-7 human breast cancer cells; experiment: Hypoxia-activated drug assay: live-dead staining (calcein-AM / propidium iodide) of micropatterned cells, normoxic or in hypoxia microdevice; type: cell-based; conditions: 50 μM TPZ; for live-cell fraction (areal fraction of positive calcein staining), inside versus outside the 1.5 mm radius: N=3, one-way ANOVA; for cytotoxicity indicated by positive nuclear propidium iodide (PI) staining: 24 hours after 12 hours pre-conditioning
# Method: To assess the response of cancer cells to drug treatment under a hypoxic gradient, as well as the feasibility of the microdevice for drug screening assays, cell viability assays with TPZ treatment in the microdevice were performed. […] Cells were pre-conditioned with hypoxia in the microdevice for 12 hours, which was considered sufficient to induce cellular adaptations to hypoxia^47, before being treated with TPZ for 24 hours. […] As dead cells can be washed off in the staining process, the areal fraction of living cells with positive calcein staining was chosen as the readout for TPZ cytotoxicity. The live-cell fractions in the micropatterns inside and outside the 1.5 mm radius were quantified, which corresponds to the pillar radius.
# MCF-7 human breast cancer cells were purchased from ATCC and maintained in […] (DMEM; Thermo Fisher) supplemented with 10% fetal bovine serum (FBS; Omega Scientific), 100 U mL^−1 penicillin, and 100 μg mL^−1 streptomycin (Thermo Fisher), in a humidified incubator maintained at 37° C. and 5% CO2. Round glass coverslips (12 mm in diameter; Fisher Scientific) were immersed in hot commercial detergent, rinsed with deionized water, and dried with air. The coverslips were then treated with plasma (Harrick Plasma, Model PDC-001-HP) and silanized with 1% aminopropyltriathoxysilane (Fisher Scientific) for 15 minutes. Upon extensive rinsing, coverslips were dried with air and cured at 100° C. for 1 hour. Next, silanized coverslips were coated with 0.1 mg mL^−1 rat tail collagen type I (Corning) in 4° C. for 3 hours under shaking conditions. Micropattern designs were modeled in CorelDrawX7 (Corel Corporation) and fabricated into 250 μm thick PDMS stencils (Rogers Corporation) by a laser engraver (Epilog). Stencil design was a circular feature of 5 mm diameter cut into a 13 mm circle. Stencils were then thoroughly rinsed in 70% isopropanol and deionized water, air-dried, and aligned onto the collagen-coated coverslips. The whole substrate was blocked with 0.2% w/v pluronic F-127 (Sigma) diluted in 1×PBS, rinsed with PBS, then with DMEM. Next, 300,000 MCF-7 human breast cancer cells (ATCC) were seeded. After cells adhered, PDMS stencils were peeled off and the glass coverslips with micropatterned cancer cells were briefly rinsed^41.
# Micropatterned cells were pre-conditioned in normoxic conditions (no microdevice) or hypoxic conditions (microdevice) for 12 hours. Next, media was replaced with 50 μM TPZ (Sigma Aldrich), a hypoxia-activated anticancer prodrug, for 24 hours. Cells were rinsed with fresh media and stained for calcein-AM (Sigma Aldrich) and propidium iodide (PI) (Thermo Fisher Scientific) for 30 minutes at room temperature. Cell survival was quantified by the fraction of cells expressing positive calcein signal.
# For the drug assay, the fraction of calcein positive cells (live cells) within (corresponding to hypoxia-induced cells under the pillar) and outside (corresponding to near-normoxic cells outside the pillar) the 1.5 mm radius was quantified. The fraction of PI positive cells (dead cells) was also quantified. The respective fractions were plotted against micropattern radii, similarly to previous image analyses. All data are plotted using Prism (GraphPad Software, Inc.).
# [2] = test system: hypoxic human cancer cells; conditions: hypoxic vs normoxic human cancer cells; cited from earlier work
smiles,measurement,setting,value
"Nc1n[n+]([O-])c2ccccc2[n+]1[O-] [TPZ, tirapazamine]","live-cell fraction (areal fraction of positive calcein staining), inside versus outside the 1.5 mm radius","[1]; hypoxia microdevice, 24 hours",significant reduction
same,cytotoxicity indicated by positive nuclear propidium iodide (PI) staining,"[1]; hypoxic samples (microdevice), MCF-7",cytotoxicity caused by TPZ
same,fate of cells under severe hypoxia near the pillar center (live-dead staining),"[1]; microdevice, ≤0.03 mol/m^3 oxygen level by COMSOL simulation, 24 hours, MCF-7",eliminated; also recorded: death zone
same,"live-cell fraction (areal fraction of positive calcein staining), inside versus outside the 1.5 mm radius","[1]; normoxic condition (no microdevice), 24 hours",not statistically different
same,cytotoxicity indicated by positive nuclear propidium iodide (PI) staining,"[1]; normoxic samples (no microdevice), MCF-7",cytotoxicity caused by TPZ; also recorded: TPZ-induced cytotoxicity
same,selectivity at targeting hypoxic human cancer cells versus their normoxic counterparts,[2],15- to 50 fold
